Source: PMC11876671, “Investigating blood–brain barrier penetration and neurotoxicity of natural products for central nervous system drug development” (Scientific Reports, 2025)
Structures can show the parent of a compound that is named as a salt.

Assay: in vitro
Conditions: PAMPA, PAMPA-BBB Pe

| SMILES | Papp |
| --- | --- |
| CC[C@]1(O)C[C@H]2CN(CCc3c([nH]c4ccccc34)[C@@](C(=O)OC)(c3cc4c(cc3OC)N(C)[C@H]3[C@@](O)(C(=O)OC)[C@H](OC(C)=O)[C@]5(CC)C=CCN6CC[C@]43[C@@H]65)C2)C1 [V[…]] | 21 ×10⁻⁶ cm/s |

Same assay, conditions: PAMPA, PAMPA-BBB Pe(10^-6 cm/sec)

| SMILES | Papp |
| --- | --- |
| C/C(=C\C(=O)OCCCCCCCCC(=O)O)C[C@@H]1OC[C@H](C[C@@H]2O[C@H]2[C@@H](C)[C@H](C)O)[C@@H](O)[C@H]1O [MUPIROCIN] | < 1 ×10⁻⁶ cm/s |
| COc1ccc(C[C@H](N)C(=O)N[C@@H]2[C@@H](CO)OC(n3cnc4c(N(C)C)ncnc43)[C@@H]2O)cc1 (stereo partly drawn) [PUROMYCIN MONOHYDROCHLORIDE] | < 1 ×10⁻⁶ cm/s |
| Cc1ncc(C[n+]2csc(CCO)c2C)c(N)n1 [THIAMINE MONONITRATE] | < 1 ×10⁻⁶ cm/s |
| COc1ccc(/C=C/C(=O)O)cc1OC [3,4-DIMETHOXYCINNAMIC ACID] | < 1 ×10⁻⁶ cm/s |
| CC(=O)O[C@@]12CO[C@@H]1C[C@H](O)[C@@]1(C)C(=O)[C@H](O)C3=C(C)[C@@H](O)C[C@@](O)([C@@H](OC(=O)c4ccccc4)[C@H]21)C3(C)C [10-DEACETYL BACCATIN III] | < 1 ×10⁻⁶ cm/s |

Same assay, conditions: PAMPA, PAMPA-BBB Pe(10^-6 cm/sec), Table S3: compounds exhibiting low PAMPA-BBB permeability

| SMILES | Papp |
| --- | --- |
| CC(C)C1=CC2=CC[C@@H]3[C@](C)(CCC[C@@]3(C)C(=O)O)[C@H]2CC1 [SODIUM ABIETATE] | < 1 ×10⁻⁶ cm/s |
| CC(C)=CCNc1ncnc2c1ncn2[C@@H]1O[C@H](CO)[C@@H](O)[C@H]1O [RIBOPRINE] | < 1 ×10⁻⁶ cm/s |
| CC1=C(/C=C/C(C)=C/C=C/C(C)=C/C=C/C=C(C)/C=C/C=C(\C)C=O)C(C)(C)CCC1 [APOCAROTENAL] | < 1 ×10⁻⁶ cm/s |
| CC(=O)CCc1ccc(O)cc1 [RASPBERRY KETONE] | 4.1 ×10⁻⁶ cm/s |
| O=C(O)/C=C/c1c[nH]cn1 [UROCANIC ACID] | < 1 ×10⁻⁶ cm/s |
| O=c1c2cc(O)c(O)cc2oc2cc(O)c([C@@H]3O[C@H](CO)[C@@H](O)[C@H](O)[C@H]3O)c(O)c12 [MANGIFERIN] | < 1 ×10⁻⁶ cm/s |
| COc1c2c(cc3c1OCO3)CC[N+](C)=C2 [COTARNINIUM] | < 1 ×10⁻⁶ cm/s |
| CC[C@H]1CN2CC[C@]3(C(=O)Nc4ccccc43)[C@@H]2C[C@@H]1/C(=C\OC)C(=O)OC [RHYNCHOPHYLLINE] | 6.5 ×10⁻⁶ cm/s |
| CC(C)Nc1nc(N)nc(Cl)n1 [DEETHYLATRAZINE] | 6.8 ×10⁻⁶ cm/s |
| O=C(/C=C/c1ccc(O)cc1)OC[C@H]1O[C@@H](Oc2c(-c3ccc(O)cc3)oc3cc(O)cc(O)c3c2=O)[C@H](O)[C@@H](O)[C@@H]1O [TILIROSIDE] | < 1 ×10⁻⁶ cm/s |
| COc1ccc2[nH]cc(CCNC(C)=O)c2c1 [MELATONIN] | 2.8 ×10⁻⁶ cm/s |
| O=C(O)c1ccco1 [2-FURANOIC ACID] | < 1 ×10⁻⁶ cm/s |
| CC1(C)CCC2=C(O1)c1ccccc1C(=O)C2=O [.BETA.-LAPACHONE] | < 1 ×10⁻⁶ cm/s |
| C[C@@H]1O[C@@H](OC[C@H]2O[C@@H](Oc3c(-c4ccc(O)c(O)c4)oc4cc(O)cc(O)c4c3=O)[C@H](O)[C@@H](O)[C@@H]2O)[C@H](O)[C@H](O)[C@H]1O [RUTIN] | < 1 ×10⁻⁶ cm/s |
| O[C@@H]1[C@@H](O)[C@H](OC/C=C/c2ccccc2)O[C@H](CO[C@@H]2OC[C@H](O)[C@H](O)[C@H]2O)[C@H]1O [ROSAVIN] | < 1 ×10⁻⁶ cm/s |
| CCCCC[C@H](O)/C=C/C1=C(CCCCCCC(=O)O)C(=O)CC1 [PROSTAGLANDIN B1] | < 1 ×10⁻⁶ cm/s |
| C[C@@H]1NCCc2cc(O)c(O)cc21 [SALSOLINOL] | < 1 ×10⁻⁶ cm/s |
| CCC(=O)c1c(O)cc(O)cc1O [FLOPROPIONE] | 2.8 ×10⁻⁶ cm/s |
| C=C(NC(=O)C(=C)NC(=O)c1csc(C2=N[C@@H]3c4csc(n4)[C@H]4NC(=O)c5csc(n5)[C@H]([C@](C)(O)[C@@H](C)O)NC(=O)[C@H]5CSC(=N5)/C(=C/C)NC(=O)[C@H]([C@@H](C)O)NC(=O)c5csc(n5)[C@]3(CC2)NC(=O)[C@H](C)NC(=O)C(=C)NC(=O)[C@H](C)NC(=O)[C@H]([C@@H](C)CC)N[C@@H]2C=Cc3c([C@H](C)O)cc(nc3[C@H]2O)C(=O)O[C@@H]4C)n1)C(N)=O [THIOSTREPTON] | < 1 ×10⁻⁶ cm/s |
| COC(=O)C[C@](O)(CCC(C)(C)O)C(=O)O[C@@H]1C(OC)=C[C@]23CCCN2CCc2cc4c(cc2[C@H]13)OCO4 [HARRINGTONINE] | < 1 ×10⁻⁶ cm/s |
| COc1ccc(C(=O)O)cc1OC [3,4-DIMETHOXYBENZOIC ACID] | < 1 ×10⁻⁶ cm/s |
| CCC/C=C/C/C=C/C=C/C=N/NN=O [TRIACSIN C] | 8.1 ×10⁻⁶ cm/s |
| COc1ccc2c(c1OC)CN1CCc3cc4c(cc3[C@@H]1C2)OCO4 [CANADINE] | 5.5 ×10⁻⁶ cm/s |

| SMILES | Papp |
| --- | --- |
| CN(CCCC(=O)c1cccnc1)N=O | < 1 ×10⁻⁶ cm/s |
| Nc1nc2c(ncn2[C@@H]2O[C@H](CO)[C@@H](O)[C@@H]2O)c(=O)[nH]1 [ARAGUANOSINE] | < 1 ×10⁻⁶ cm/s |
| CC1=C[C@H]2[C@@]3(O)[C@H](C)[C@@H](O)[C@]4(O)[C@H]([C@@H]3C=C(CO)C[C@]2(O)C1=O)C4(C)C [PHORBOL] | < 1 ×10⁻⁶ cm/s |
| O=C(CCc1ccc(O)cc1)c1c(O)cc(O)cc1O [PHLORETIN] | 2.2 ×10⁻⁶ cm/s |
| O=C(O)[C@H]1O[C@@H](Oc2cc3oc(-c4ccccc4)cc(=O)c3c(O)c2O)[C@H](O)[C@@H](O)[C@@H]1O [BAICALIN] | 1.3 ×10⁻⁶ cm/s |
| COc1cc(-c2[o+]c3cc(O)cc(O)c3cc2O)cc(OC)c1O [MALVIDIN] | 1 ×10⁻⁶ cm/s |
| C[N+]1([O-])CCC[C@@H]1c1cccnc1 (stereo partly drawn) [NICOTINE N'-OXIDE] | 2.8 ×10⁻⁶ cm/s |
| C[C@@H]1CC[C@@]2(OC1)O[C@H]1C[C@H]3[C@@H]4CC[C@H]5C[C@@H](O)CC[C@]5(C)[C@H]4CC(=O)[C@]3(C)[C@H]1[C@@H]2C [HECOGENIN] | < 1 ×10⁻⁶ cm/s |
| O=C(O[C@@H]1Cc2c(O)cc(O)cc2O[C@@H]1c1ccc(O)c(O)c1)c1cc(O)c(O)c(O)c1 [EPICATECHIN GALLATE] | < 1 ×10⁻⁶ cm/s |
| O=c1c(O[C@@H]2O[C@H](CO)[C@H](O)[C@H](O)[C@H]2O)c(-c2ccc(O)c(O)c2)oc2cc(O)cc(O)c12 [HYPEROSIDE] | 1.6 ×10⁻⁶ cm/s |
| O=C1C[C@@H](c2ccc(O[C@@H]3O[C@H](CO)[C@@H](O)[C@H](O)[C@H]3O)cc2)Oc2cc(O)ccc21 [LIQUIRITIN] | < 1 ×10⁻⁶ cm/s |
| c1coc(CNc2ncnc3[nH]cnc23)c1 [KINETIN] | 4 ×10⁻⁶ cm/s |
| Cc1cc(O)c(C=O)c2c1C(=O)Oc1c(C)c(O)c3c(c1O2)C(O)OC3=O (stereo not drawn) [Norstictic acid] | 2 ×10⁻⁶ cm/s |
| O=c1cc(-c2ccc(O)cc2)oc2cc(O)ccc12 [K[…]] | 2.9 ×10⁻⁶ cm/s |
| O=C1C=C2C(=CCOC2O)O1 (stereo not drawn) [PATULIN] | < 1 ×10⁻⁶ cm/s |
| CC(=O)c1ccc(O[C@@H]2O[C@H](CO)[C@@H](O)[C@H](O)[C@H]2O)cc1 [PICEIN] | < 1 ×10⁻⁶ cm/s |
| O=c1c(O)c(-c2ccc(O)cc2O)oc2cc(O)cc(O)c12 [MORIN] | 1.5 ×10⁻⁶ cm/s |
| COc1cccc2c1cc([N+](=O)[O-])c1c(C(=O)O)cc3c(c12)OCO3 [ARISTOLOCHIC ACID] | < 1 ×10⁻⁶ cm/s |
| C=C1CC[C@H](O)C/C1=C/C=C1\CCC[C@]2(C)[C@@H]([C@H](C)/C=C/[C@H](C)C(C)C)CC[C@@H]12 [ERGOCALCIFEROL] | < 1 ×10⁻⁶ cm/s |
| C[C@@H]1CC[C@]2(C)CC[C@]3(C)C(=CC(=O)C4[C@@]5(C)CC[C@@H](O)[C@](C)(C(=O)O)C5CC[C@]43C)C2[C@H]1C (stereo partly drawn) [KETO-B-BOSWELLIC ACID] | < 1 ×10⁻⁶ cm/s |
| COc1cc(C)c2c(c1C=O)Oc1c(c(C)c(O)c3c1C(O)OC3=O)OC2=O (stereo not drawn) [STICTIC ACID] | < 1 ×10⁻⁶ cm/s |
| O=C(O)c1cc(N(Cc2ccccc2O)Cc2ccccc2O)ccc1O [L[…]] | 5.9 ×10⁻⁶ cm/s |

Same assay, conditions: PAMPA, PAMPA-BBB Pe, Table S2: compounds exhibiting moderate to high PAMPA-BBB permeability

| SMILES | Papp |
| --- | --- |
| CC(=O)c1ccc[nH]1 [METHYL PYRROL-2-YL KETONE] | 28 ×10⁻⁶ cm/s |
| CCc1ccc(O)c(OC)c1 [4-ETHYLGUAIACOL] | 116 ×10⁻⁶ cm/s |
| C=C[C@H]1CN2CC[C@@]3(C(=O)Nc4ccccc43)[C@@H]2C[C@@H]1/C(=C\OC)C(=O)OC [ISOCORYNOXEINE] | 37 ×10⁻⁶ cm/s |
| Cc1ccc2c(c1)C(=O)c1ccccc1C2=O [.BETA.-METHYLANTHRAQUINONE] | 26 ×10⁻⁶ cm/s |
| COC(=O)C1=CO[C@@H](C)[C@@H]2CN3CC[C@@]4(C(=O)Nc5ccccc54)[C@@H]3CC12 (stereo partly drawn) [MITRAPHYLLINE] | 117 ×10⁻⁶ cm/s |
| O=c1c2ccccc2nc2n1CCc1c-2[nH]c2ccccc12 [RUTECARPINE] | 151 ×10⁻⁶ cm/s |
| COC(=O)/C=C\C(=O)O [[…]] | 48 ×10⁻⁶ cm/s |
| C[C@]12CCC(=O)C=C1CC[C@@H]1[C@@H]2C(=O)C[C@]2(C)C(=O)CC[C@@H]12 [ADRENOSTERONE] | 41 ×10⁻⁶ cm/s |
| COc1ccc(-c2cnc(-c3cccnc3)o2)cc1 [O-[…]] | 262 ×10⁻⁶ cm/s |
| COc1ccc2[nH]c3c(c2c1)CCN=C3C [6-METHOXYHARMALANE] | 49 ×10⁻⁶ cm/s |
| CCCCCc1cccc(=O)o1 [6-PENTYL-2H-PYRAN-2-ONE] | 52 ×10⁻⁶ cm/s |
| O=C(/C=C/c1ccccc1)OCc1ccccc1 [BENZYL CINNAMATE] | > 424 ×10⁻⁶ cm/s |
| COc1cc(C)c(C(=O)Oc2cc(C)c(C(=O)O)c(O)c2C)c(OC)c1C [Diffractaic acid] | 15 ×10⁻⁶ cm/s |
| CC[C@H]1CN2CC[C@H]1C[C@@H]2[C@@H](O)c1ccnc2ccc(OC)cc12 [HYDROQUINIDINE HYDROCHLORIDE] | 37 ×10⁻⁶ cm/s |
| COc1cc2c(c(OC)c1OC)-c1c(cc(OC)c(OC)c1OC)C[C@H](C)[C@H](C)C2 [S[…]] | 171 ×10⁻⁶ cm/s |
| CC1=C[C@H](O)CC(C)(C)[C@H]1/C=C/C(C)=C/C=C/C(C)=C/C=C/C=C(C)/C=C/C=C(C)/C=C/C1=C(C)C[C@@H](O)CC1(C)C [XANTOFYL] | 28 ×10⁻⁶ cm/s |
| C[C@]12CC[C@H](O)C[C@H]1CC[C@@H]1[C@@H]2CC[C@]2(C)[C@@H](c3ccc(=O)oc3)C[C@H]3O[C@]132 [BUFOGENIN] | 115 ×10⁻⁶ cm/s |
| CCCCC[C@H](O)CC(=O)CCc1ccc(O)c(OC)c1 [GINGEROL] | 69 ×10⁻⁶ cm/s |
| CCCOc1ccc2[nH]cc(C3=CCNCC3)c2n1 | 18 ×10⁻⁶ cm/s |
| S=c1ccss1 [1,2-DITHIOLE-3-THIONE] | 98 ×10⁻⁶ cm/s |
| COc1c2c(cc3c1OCO3)CCN(C)C2 [HYDROCOTARNINE HYDROBROMIDE] | 35 ×10⁻⁶ cm/s |
| COc1cc2c(O)c3c(c(-c4ccc5c(c4)OCO5)c2cc1OC)C(=O)OC3 [DIPHYLLIN] | 187 ×10⁻⁶ cm/s |
| c1ccc2cnccc2c1 [ISOQUINOLINE] | 157 ×10⁻⁶ cm/s |
| Cc1ccc(C(C)C)c(O)c1 [THYMOL] | 168 ×10⁻⁶ cm/s |
| Cc1ccnc(N)c1 [AMINOPICOLINE] | 13 ×10⁻⁶ cm/s |
| CCOC(=O)c1ccc(O)cc1 [ETHYL HYDROXYBENZOATE] | 43 ×10⁻⁶ cm/s |
| COc1ccc(-c2coc3cc(O)ccc3c2=O)cc1 [FORMONONETIN] | 97 ×10⁻⁶ cm/s |
